# Experimental data as given in patent US20140309295A1, “ANTIEPILEPTIC, HYPOCHOLESTEROLEMIC AND NEUROPROTECTIVE COMPOUND” (NEURON BIOPHARMA, S.A., priority 2009, published 2014).
# Legend:
# caspase 3/7 = test: Inhibition of camptothecin-induced activation of caspase 3/7 in SK-N-MC cells; assay type: cell-based, human; conditions: 50 μM CPT, 6 h
# Experimental: The assay was performed on human neuroblastoma SK-N-MC cells in culture from the American Type Culture Collection (ATCC), in all cases strict rules of sterility were followed and the manipulation was performed in class II biological safety cabinets following European standard EN 12469. The cells were maintained in the following culture medium: Minimum Essential Medium Eagle (MEM) supplemented with 1 mM sodium pyruvate, 2 mM L-glutamine, 0.1 mM non-essential amino acids, 0.05 mg/ml gentamicin and 10% fetal bovine serum. The induction of apoptosis on the cells in culture was performed by means of incubation with camptothecin (CPT), which triggers cell apoptosis activation. The apoptosis was determined by means of the measurement of the activation of effector caspases, caspase 3 or caspase 7, for which a kit for the fluorometric detection of active caspase 3/7 (Apo-ONE® Homogeneous Caspase-3/7, Promega) was used. The active caspase 3 or 7 of the cells cause the rupture of a substrate, which leads to fluorescence emission, which is read by means of a fluorometer. The effect of the pretreatment of compound NST0037 at 10 and 40 μM on the activation of caspase 3/7 caused by 50 μM of camptothecin (CPT) in the SK-N-MC cells was thus analyzed. These cells, not exceeding 15 passages, were seeded on 96-well plates treated for adherent cells with a cell concentration of 5×10^4 cells/well, 3 wells of the plate were seeded for each condition of the assay. After 24 hours of cell incubation at 37° C. and 5% CO2, the pretreatment with NST0037 at 10 and 40 μM was performed. […] On the following day, fluorescence was measured (499/521 nm, […]).
# [1] = system: FVB/NHan mice inoculated with kainate (KA); test: Neuronal death in the hippocampus of mice caused by kainate (hematoxylin-eosin); assay type: in vivo; conditions: 50 mg/kg i.p., 7 days
# Experimental: All the animals included for the experimental process were 12-week old males of the FVB/NHan strain. The experiments were conducted strictly following the Guidance on the Operation of Animals (Scientific Procedures, Act. 1986). The animals had their respective quarantine period and were treated with maximum precaution to minimize possible contaminations for inoculations and handling. […]
compound,measurement,setting,value
"CCC(CC)C(=O)O[C@H]1C[C@@H](C)C=C2C=C[C@H](C)[C@H](CC[C@@H]3C[C@@H](O)CC(=O)O3)[C@H]21 [NST0037, (1S,2S,6R,8S,8aR)-1,2,6,7,8,8a-hexahydro-3,7-dimethyl-8-[2-[(2R,4R)-tetrahydro-4-hydroxy-6-oxo-2H-pyran-2-yl]ethyl]-1-naphthalenyl-2-ethyl-butyrate]",inhibition of caspase 3/7 with respect to camptothecin,caspase 3/7; pretreatment 10 μM NST0037,26%
same,inhibition of caspase 3/7 with respect to camptothecin,caspase 3/7; pretreatment 40 μM NST0037,33%
same,neuronal death in hippocampal CA1 and CA2 regions,"[1]; NST0037+KA+NST0037 regimen, KA 25 mg/Kg",completely protected against neuronal death
same,neuronal death in hippocampal CA1 and CA2 regions,[1]; PBS+KA+NST0037 regimen (treatment after KA),qualitatively reduced neuronal death and damage
